{
  "source": "patent US20050100983A1",
  "about": "“Cell-free methods for identifying compounds that affect toll-like receptor 9 (TLR9) signaling” (Coley Pharmaceutical GmbH, priority 2003, published 2005)",
  "key": {"[1]": {"target": "T1, mTLR9ect (Mus musculus, UniProt Q9EQU3)", "T1 construct": "mTLR9ect (aa 1-816); made in house", "T1 sequence (Q9EQU3 26-816)": "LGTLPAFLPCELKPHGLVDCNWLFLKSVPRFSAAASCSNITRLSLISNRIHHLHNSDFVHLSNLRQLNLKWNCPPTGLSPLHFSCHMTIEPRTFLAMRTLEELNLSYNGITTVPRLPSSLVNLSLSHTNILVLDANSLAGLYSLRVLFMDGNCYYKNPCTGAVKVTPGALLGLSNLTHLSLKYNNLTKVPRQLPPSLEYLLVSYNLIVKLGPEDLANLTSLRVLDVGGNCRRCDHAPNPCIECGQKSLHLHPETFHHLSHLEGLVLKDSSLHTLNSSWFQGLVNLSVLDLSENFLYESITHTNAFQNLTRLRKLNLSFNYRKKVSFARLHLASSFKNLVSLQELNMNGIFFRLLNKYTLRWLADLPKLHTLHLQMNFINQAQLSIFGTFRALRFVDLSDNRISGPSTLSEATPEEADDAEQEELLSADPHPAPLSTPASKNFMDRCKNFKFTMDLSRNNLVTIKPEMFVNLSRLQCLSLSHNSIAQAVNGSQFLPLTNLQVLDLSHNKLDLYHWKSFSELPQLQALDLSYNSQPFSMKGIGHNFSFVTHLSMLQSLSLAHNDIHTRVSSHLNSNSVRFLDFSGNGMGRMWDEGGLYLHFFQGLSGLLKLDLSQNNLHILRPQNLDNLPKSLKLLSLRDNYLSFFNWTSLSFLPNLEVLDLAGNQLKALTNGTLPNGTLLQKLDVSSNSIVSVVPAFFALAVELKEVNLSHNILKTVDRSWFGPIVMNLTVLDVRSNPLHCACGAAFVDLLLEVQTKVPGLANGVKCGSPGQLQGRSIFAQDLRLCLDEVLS", "assay": "UV-crosslinking of mTLR9ect with 32P-labeled DNA and SDS-PAGE", "assay_type": "binding, murine", "details": "SDS-PAGE, complex at 150 kDa", "text": "FIG. 1B is an image of an SDS-PAGE gel depicting purified proteins from FIG. 1A UV-crosslinked with ^32P-labeled CpG- or non-CpG-DNA, separated by SDS-PAGE, and autoradiographed. TLR9 and free DNA are highlighted.\nBauer S et al. (2001) Proc. Natl. Acad. Sci. U.S.A. 98:9237-9242. To assess binding of TLR9 to CpG-DNA, a recombinant fusion protein consisting of the extracellular domain of murine TLR9 and human IgG 1-Fc (mTLR9ect) was constructed. The extracellular domain of murine TLR2 also fused to IgG1-Fc (mTLR2ect) served as control. Proteins were expressed in HEK 293 cells and purified via protein A affinity chromatography (FIG. 1A). Under denaturing and non-reducing conditions mTLR9ect and mTLR2ect are approximately 10% in a monomeric and 90% in a dimeric form. Dimerization of the proteins is probably mediated by the IgG 1-Fc fusion partner which forms disulfide bonds (FIG. 1A). Initially, binding of mTLR9ect to radiolabeled DNA was determined by UV-crosslinking and subsequent SDS-PAGE."}, "[2]": {"target": "T2, mTLR9ect (extracellular domain of murine TLR9 fused to human IgG1-Fc) (Mus musculus, UniProt Q9EQU3)", "T2 construct": "mTLR9ect (aa 1-816); made in house", "T2 sequence (Q9EQU3 26-816)": "T1 sequence (Q9EQU3 26-816)", "assay": "SPR biosensor analysis of mTLR9ect binding to immobilized CpG-DNA", "text": "Protein. Recombinant fusion proteins consisting of the extracellular domain of Toll-like receptors mTLR9ect (aa 1-816), mTLR9ect-mut (see below) (aa 1-816), hTLR9ect (aa 1-815) and mTLR2ect (aa 1-587) fused to human IgG1-Fc were constructed by amplifying the corresponding extracellular domain and ligating the fragment in frame into a pcDNA3.1(−) (Invitrogen, Netherlands) vector containing the coding sequence for human IgG1-Fc. Fusion proteins were stably expressed in HEK 293 cells and purified from cell lysates by protein A affinity chromatography.\nSPR biosensor analysis. Real-time binding of TLR9 or TLR2 was measured by surface plasmon resonance biosensor technology using the BiaCore X system (Uppsala, Sweden). For analysis of TLR9 and TLR2 interaction, biotinylated CpG-DNA and non-CpG-DNA, or biotinylated Pam3CysK4 and PHCK4, respectively, were loaded in running buffer (50 mM MES, 150 mM NaCl, 1 mM MgCl2 at pH 6.5) on SA chips precoated with streptavidin (Biacore AB, Uppsala, Sweden). Non-CpG-DNA or PHCK4 (Wiesmuller K H et al. (1989) Vaccine 7:29-33) served as reference for CpG-DNA and Pam3CysK4 interaction (structure or sequence in Table 1). […] TLR proteins were introduced at 200 nM or as indicated in 40 μl running buffer at a flow rate of 10 μl/min. Binding was measured at 25° C. for 750 s (delay time 300 s). […] Sensorgrams were recorded and kinetic data were calculated by the BiaCore Evaluation program (Biacore, version 3.0.1). Regeneration of the chip was performed by injection of 10 μl 50 mM NaOH, 1 M NaCl and extensive re-equilibration.\nFor detailed analysis of TLR9-CpG-DNA interaction, surface plasmon resonance (SPR) biosensor based technology was used with CpG- and non-CpG-DNA immobilized onto separate flow cells of a streptavidin-coated chip. Under these settings non-CpG-DNA served as reference for specific binding (see Methods). Binding of mTLR9ect to DNA was CpG-sequence-specific and increased in a dose-dependent manner. […] Using the 1:1 binding model of the BioEvaluation software as fitting algorithm and on the basis of four different mTLR9ect concentrations ranging from 50 to 300 nM, a dissociation constant (Kd) of 200 nM was obtained with low chi-squared residuals (4,76). […] Weber AN et al. (2003) Nat. Immunol. 4:794-800. Furthermore the concentration of CpG-DNA 1668 (SEQ ID NO:1) for half-maximal activation of murine TLR9 has been recently calculated as 70 nM which correlates well with the KD obtained here. Bauer S et al. (2001) Proc. Natl. Acad. Sci. U.S.A. 98:9237-9242. […] This difference in affinity correlates with the observed species-specific variance in CpG-motif recognition, as well as activation potential. Bauer S et al. (2001) Proc. Natl. Acad. Sci. U.S.A. 98:9237-9242."}},
  "data": [
    {"substance": "5′-TCCATGACGTTCCTGATGCT-3′ (chemistry not given here) [CpG-DNA 1668, synthetic CpG oligodeoxynucleotide, TLR9 ligand]", "values": [
      {"measurement": "binding of mTLR9ect to radiolabeled DNA", "setting": "[1]", "result": "bound"},
      {"measurement": "Kd", "setting": "[2]; 1:1 binding model, four mTLR9ect concentrations 50 to 300 nM, running buffer pH 6.5, 25° C., read-out: dissociation constant (Kd)", "result": 200, "unit": "nM"},
      {"measurement": "Binding of mTLR9ect to DNA", "setting": "[2]; SPR, non-CpG-DNA as reference, pH 6.5", "result": "CpG-sequence-specific"},
      {"measurement": "release of bound mTLR9ect by free injected DNA", "setting": "[2]; competition, free DNA added in dissociation phase", "result": "dose dependently released bound mTLR9ect"},
      {"measurement": "TLR9 binding to CpG-DNA", "setting": "[2]; pH 6.5 or 5.5", "result": "strong"},
      {"measurement": "dissociation of TLR9 from CpG-DNA", "setting": "[2]; pH 6.5 or 5.5", "result": "weak dissociation"},
      {"measurement": "effect of pre-incubation of mTLR9ect with DNA on binding to chip-immobilized CpG-DNA", "setting": "[2]; pre-incubation prior to SPR analysis", "result": "abolished binding"}
    ]}
  ]
}
